Source: patent US20210308077A1, “COMBINATIONS INCLUDING BETA-ADRENORECEPTOR AGONISTS FOR TREATMENT OF PARKINSON`S DISEASE AND MOVEMENT DISORDERS” (The Brigham and Women`s Hospital, Inc., priority 2017, published 2021)

System: NPCs carrying the SNCA triplication
Assay: MitoSox assay of mitochondria-associated superoxide in SNCA-triplication NPCs exposed to rotenone
Type: cell-based, human
Conditions: 20 μM rotenone, 20 μM clenbuterol
Experimental: Patient-derived NPCs carrying the familial SNCA triplication were generated as described previously (28). NPCs were seeded at […] in 96-well plates (Greiner Cellcoat μClear) for HTS plate reader analysis (Polarstar Omega, BMG). For experiments with toxicants and inhibitors, NPCs were cultured under the following conditions for 18 hours unless specified differently in the experiment procedures: Standard NPC growth medium, growth medium plus 20 μM rotenone (Sigma).
For the Plate Reader HTS, each experiment was conducted with 6 replicates per cell line and treatment regimen. NPCs were treated with 20 μM clenbuterol for four days. Signals from individual wells were acquired with integration of fluorescence signals over 1 second duration by bottom read in orbital mode (8-spot measurements with 2 mm radius). […]
For the MitoSox assay for the detection of mitochondria-associated superoxide levels, adherent NPCs in 96-well plates were incubated with 2 μM MitoSOX™ (Ex./Em. 510/580 nm) and MitoTracker® Green (485/520 nm) (both Life Technologies) in high glucose without phenol red (Life Technologies), containing supplements without antioxidants (Life Technologies) for 15 min at 37° C. in the dark. […] Fluorescence was detected by sequential readings, and MitoSOX™ signals were normalized to mitochondrial content (Mitotracker®) and cell number (Hoechst).

Compound: CC(C)(C)NCC(O)c1cc(Cl)c(N)c(Cl)c1 (stereo not shown) [clenbuterol]
- mitochondria associated superoxide production: ameliorated this increased mitochondria associated superoxide production
